Experimental data as given in patent publication US20090068290A1, “BIFEPRUNOX DOSES FOR TREATING SCHIZOPHRENIA” (priority 2006, published 2009).

Experiments:
Assay type in all cases: in vivo, human
[1] = system: adult subjects with schizophrenia; experiment: PANSS responder rates, Clinical Study One; conditions: for PANSS Responder at Endpoint (LOCF), 30% Definition / PANSS Responder at Endpoint (LOCF), 35% Definition / PANSS Responder at Endpoint (LOCF), 20% Definition / PANSS Responder at Endpoint (LOCF), 25% Definition: ITT; for PANSS responder rate, 20% definition: Endpoint LOCF
Experimental: There were five treatment groups in this study. […] Study medication was administered once daily. After Baseline measurements were performed, the titration phase was begun. Bifeprunox treated subjects were titrated up to 5 mg, 10 mg or 20 mg according to a standardized titration schedule (Day 1: 0.125 mg, Day 2: 0.25 mg, Day 3: 0.5 mg, Day 4: 1.0 mg, Day 5: 2.0 mg, Day 6: 5.0 mg, Day 7: 10.0 mg, Day 8: 20 mg). When the assigned dose was reached, subjects were maintained at that dose for the remainder of the six-week treatment period.

[2] = system: adult subjects with schizophrenia; experiment: PANSS total score, Clinical Study Two (6-week, risperidone-referenced); conditions: LOCF; for Change from Baseline in PANSS Total Score, Mean (SD) / Change from Baseline in PANSS Total Score, Median / PANSS Total Score, Trt Effect (difference between bifeprunox and placebo): ITT; for PANSS Total Score, Trt Effect (difference between bifeprunox and placebo): ANCOVA
Experimental: Treatment started with a single-blind placebo lead-in period of at least three days, followed by titration from 0.25 mg up to 30 mg/day or 40 mg/day of bifeprunox for bifeprunox-treated subjects.
Rating scale assessments were performed weekly, except for week 5, to measure the change from baseline to endpoint of the PANSS total score. Other assessments included: PANSS positive symptom subscale score, PANSS negative symptom subscale score, PANSS general pschopathology subscale score, BPRS total score, BPRS psychosis score, the CGI-S score, the CGI-I score, responder rates based on the PANSS total score, and the Calgary Depression Scale for Schizophrenia (CDSS).
Subjects who completed this study had the option to continue in the long-term. […] After completing a Single-Blind placebo lead-in period of at least three days, bifeprunox-treated subjects were titrated from 0.25 mg up to 30 mg/day or 40 mg/day according to a standardized titration scheme over an eight-day period. When the assigned dose was reached, subjects were maintained at that dose for the remainder of the six week treatment period. […] Rating scale assessments for efficacy and abnormal movement disorders were done weekly except for Week 5. Safety assessments were performed at Screening, during treatment and at the end of the study. Subject satisfaction with study medication was assessed at Week 6. Samples of blood were obtained at Weeks 2, 4, and 6 for determination of bifeprunox in plasma. Blood samples were also obtained at Screening/Baseline, Week 3, and Week 6 for clinical laboratory assessments.
Diagnosis and Main Criteria for Inclusion: Male or female subjects 18-75 years of age with schizophrenia (per DSM-IV-TR criteria). Subjects had to have a total score on the PANSS between 70 and 120; at least two of four PANSS items (conceptual disorganization, hallucinatory behavior, suspiciousness, unusual thought content) had to have a score ≧4; and the score on the CGI-S had to be at least 4.

[3] = system: adult subjects with schizophrenia; experiment: SAS, BAS and AIMS movement scales, Clinical Study Two
Experimental: Pharmacokinetic (PK) data of bifeprunox in schizophrenic subjects were also assessed and are presented in a separate report (combined with data from study S1543003).
The SAS is used to measure Parkinsonian-type symptoms in patients exposed to antipsychotics. The scale consists of 10 items, each rated on a 5-point scale ranging from 0 (complete absence of the condition) to 4 (presence of the condition in extreme form). The SAS total score is defined as the sum of all item scores, and the range is 0 to 40. A SAS total score of up to 3 is considered normal.
The BAS is used to rate observable, restless movements of drug-induced akathisia as well as the subjective awareness of restlessness and any distress associated with the akathisia. The scale consists of 3 items that is rated from 0 (no evidence of akathisia) to 3 (severe akathisia). The BAS total score is defined as the sum of the these three BAS item scores and ranges from is 0 to 9. In addition, a global clinical assessment of akathisia is rated from 0 (no evidence of akathisia) to 5 (severe akathisia).
The AIMS, designed to record the occurrence of dyskinetic movements, consists of 12 items. Items 1 to 7 measure specific involuntary movements on a scale from 0 (none) to 4 (severe). Items 8 to 10 measure global assessment of abnormal movement on a scale from 0 (no awareness) to 4 (aware, severe distress). Items 11 and 12 are questions regarding the dental condition of the patient, with yes/no answers. The total score is calculated by summing AIMS items 1 through 10 and ranges from 0 to 40; the non-global total score is calculated by summing items 1 through 7.

[4] = Bifeprunox 30 mg, Week 6/Endpoint
[5] = Bifeprunox 40 mg, Week 6/Endpoint

Compound: O=c1[nH]c2cccc(N3CCN(Cc4cccc(-c5ccccc5)c4)CC3)c2o1 [Bifeprunox, 7-[4-([1,1′-biphenyl]-3-ylmethyl)-1-piperazinyl]-2(3H)-benzoxazolone]
- PANSS Responder at Endpoint (LOCF), 30% Definition ([1]; Bifeprunox 5 mg): 16 (15) n (%)
- PANSS Responder at Endpoint (LOCF), 35% Definition ([1]; Bifeprunox 5 mg): 11 (10) n (%)
- PANSS responder rate, 20% definition ([1]; Bifeprunox 10 mg): 24%
- PANSS Responder at Endpoint (LOCF), 20% Definition ([1]; Bifeprunox 10 mg): 28 (24) n (%)
- PANSS Responder at Endpoint (LOCF), 25% Definition ([1]; Bifeprunox 10 mg): 22 (19) n (%)
- PANSS Responder at Endpoint (LOCF), 30% Definition ([1]; Bifeprunox 10 mg): 12 (10) n (%)
- PANSS Responder at Endpoint (LOCF), 35% Definition ([1]; Bifeprunox 10 mg): 7 (6) n (%)
- PANSS Responder at Endpoint (LOCF), 20% Definition ([1]; Bifeprunox 20 mg): 38 (34) n (%)
- PANSS Responder at Endpoint (LOCF), 25% Definition ([1]; Bifeprunox 20 mg): 27 (24) n (%)
- PANSS Responder at Endpoint (LOCF), 30% Definition ([1]; Bifeprunox 20 mg): 18 (16) n (%)
- PANSS Responder at Endpoint (LOCF), 35% Definition ([1]; Bifeprunox 20 mg): 14 (13) n (%)
- PANSS responder rate, 20% definition ([1]; bifeprunox 20 mg): 34%
- Change from Baseline in PANSS Total Score, Mean (SD) ([2]; Bifeprunox 30 mg, Week 1): −6.6 (11.8)
- Change from Baseline in PANSS Total Score, Median ([2]; Bifeprunox 30 mg, Week 1): −5
- Change from Baseline in PANSS Total Score, Mean (SD) ([2]; Bifeprunox 30 mg, Week 2): −11.6 (15.5)
- Change from Baseline in PANSS Total Score, Median ([2]; Bifeprunox 30 mg, Week 2): −10
- Change from Baseline in PANSS Total Score, Mean (SD) ([2]; Bifeprunox 30 mg, Week 3): −13.3 (17.8)
- Change from Baseline in PANSS Total Score, Median ([2]; Bifeprunox 30 mg, Week 3): −10
- Change from Baseline in PANSS Total Score, Mean (SD) ([2]; Bifeprunox 30 mg, Week 4): −13.6 (18.9)
- Change from Baseline in PANSS Total Score, Median ([2]; Bifeprunox 30 mg, Week 4): −10
- Change from Baseline in PANSS Total Score, Mean (SD) [2, 4]: −13.5 (20.1)
- Change from Baseline in PANSS Total Score, Median [2, 4]: −10
- PANSS Total Score, Trt Effect (difference between bifeprunox and placebo) [2, 4]: −5.9
- Change from Baseline in PANSS Total Score, Mean (SD) ([2]; Bifeprunox 40 mg, Week 1): −6.7 (11.5)
- Change from Baseline in PANSS Total Score, Median ([2]; Bifeprunox 40 mg, Week 1): −6
- Change from Baseline in PANSS Total Score, Mean (SD) ([2]; Bifeprunox 40 mg, Week 2): −8.9 (15.6)
- Change from Baseline in PANSS Total Score, Median ([2]; Bifeprunox 40 mg, Week 2): −8
- Change from Baseline in PANSS Total Score, Mean (SD) ([2]; Bifeprunox 40 mg, Week 3): −10.0 (17.8)
- Change from Baseline in PANSS Total Score, Median ([2]; Bifeprunox 40 mg, Week 3): −10
- Change from Baseline in PANSS Total Score, Mean (SD) ([2]; Bifeprunox 40 mg, Week 4): −9.2 (18.8)
- Change from Baseline in PANSS Total Score, Median ([2]; Bifeprunox 40 mg, Week 4): −7
- Change from Baseline in PANSS Total Score, Mean (SD) [2, 5]: −10.3 (20.5)
- Change from Baseline in PANSS Total Score, Median [2, 5]: −7
- PANSS Total Score, Trt Effect (difference between bifeprunox and placebo) [2, 5]: −3.2
- difference from placebo, change from Baseline to Endpoint in PANSS total score ([2]; bifeprunox 30 mg (b57 prints 20 mg)): statistically significant difference from placebo
- greater improvement from Baseline to Endpoint in PANSS total score compared with placebo ([2]; bifeprunox 30 mg): 5.9 point
- PANSS Total Score, treatment effect versus placebo ([2]; bifeprunox 30 mg, week 2): −5.6
- PANSS Total Score, treatment effect versus placebo ([2]; bifeprunox 30 mg, week 4): −6.3
- difference from placebo, change from Baseline to Endpoint in PANSS total score ([2]; bifeprunox 40 mg): not significantly different from the placebo group
- SAS shifts from normal at Baseline to abnormal at Endpoint ([3]; Bifeprunox 30 mg): < 1%
- SAS shifts from normal at Baseline to abnormal at Endpoint ([3]; Bifeprunox 40 mg): 4%
- subjects with abnormal SAS scores at Endpoint ([3]; Bifeprunox 40 mg): 7%
